In publication PMC7834886 (Life Sciences, 2020):

Key:
[1] = test system: ACE2^hi cells (ACE2 high-expressing HEK293T cells); assay: Cytotoxicity assay; type: cell-based; settings: for cytotoxicity to cells: at 20 μM; for effect on activity (survival) of ACE2^hi cells: at concentrations below 100 μM
[2] = preclinical and clinical studies; cited from earlier work
ACE2 = ACE2 (Homo sapiens, UniProt Q9BYF1); type: binding; settings: mobile phase 10 mM Na2HPO4 / phosphate-buffer saline pH 7.4; flow rate 0.2 mL/min; 37 °C; UV 254 nm
Sequence of ACE2 (Q9BYF1 18-805): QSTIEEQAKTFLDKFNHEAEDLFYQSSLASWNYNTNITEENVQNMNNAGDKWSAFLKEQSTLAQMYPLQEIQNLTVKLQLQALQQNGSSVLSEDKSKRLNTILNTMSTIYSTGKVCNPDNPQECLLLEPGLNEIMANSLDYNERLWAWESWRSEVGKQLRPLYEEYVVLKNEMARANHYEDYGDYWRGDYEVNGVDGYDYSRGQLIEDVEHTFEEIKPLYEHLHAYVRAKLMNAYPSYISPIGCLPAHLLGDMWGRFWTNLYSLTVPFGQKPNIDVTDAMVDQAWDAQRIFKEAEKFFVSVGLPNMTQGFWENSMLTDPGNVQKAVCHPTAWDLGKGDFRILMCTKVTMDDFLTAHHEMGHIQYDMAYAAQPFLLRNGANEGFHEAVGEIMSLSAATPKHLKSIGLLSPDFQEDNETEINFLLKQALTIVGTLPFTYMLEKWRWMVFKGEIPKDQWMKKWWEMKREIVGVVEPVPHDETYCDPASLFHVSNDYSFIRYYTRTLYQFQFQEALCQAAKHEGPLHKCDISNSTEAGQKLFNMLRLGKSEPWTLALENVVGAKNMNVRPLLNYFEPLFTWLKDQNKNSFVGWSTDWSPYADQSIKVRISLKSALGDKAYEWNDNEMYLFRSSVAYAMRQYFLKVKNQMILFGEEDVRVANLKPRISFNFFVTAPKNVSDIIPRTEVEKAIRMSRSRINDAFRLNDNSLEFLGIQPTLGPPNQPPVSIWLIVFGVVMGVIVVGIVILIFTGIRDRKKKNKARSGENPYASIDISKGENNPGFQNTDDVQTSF

Structure (SMILES)	difference in cell viability versus control group ([1]; CCK-8, 24 h, at concentrations below 50 μM)	cytotoxicity to cells [1]	concentration in the lungs relative to plasma [2]	effect on activity (survival) of ACE2^hi cells ([1]; CCK-8, 24 h)	retention time (tR) on ACE2-CMC column (ACE2)
OCCOCCN1CCN(C2=Nc3ccccc3Sc3ccccc32)CC1 [Que, quetiapine]	no significant difference	no cytotoxicity	–	–	–
CN(C)CCCN1c2ccccc2Sc2ccc(Cl)cc21 [Chl, Chlorpromazine]	–	no cytotoxicity	20–200 times higher than in plasma	–	–
CCN(CC)CCNC(=O)c1cc(S(C)(=O)=O)ccc1OC [Tia, tiapride]	–	no cytotoxicity	–	no significant effect	7.789 min
O=C1CCc2ccc(OCCCCN3CCN(c4cccc(Cl)c4Cl)CC3)cc2N1 [Ari, aripiprazole]	–	no cytotoxicity	–	no significant effect	–
CSc1ccc2c(c1)N(CCC1CCCCN1C)c1ccccc1S2 (stereo not drawn) [Thi, thioridazine]	–	no cytotoxicity	–	–	51.604 min
CN1CCN(CCCN2c3ccccc3Sc3ccc(C(F)(F)F)cc32)CC1 [Tri, Trifluoperazine]	–	no cytotoxicity	–	–	–
